Structures are written as SMILES. Where a name gives a salt, the structure may show the parent alone.

The target in the assay is novel receptor obtainable from rat forebrain tissue. Kind of assay: Radioligand binding assay, displacement of [3H]-Compound A. To be noted: competition with [3H]-Compound A (usually 20 nM), room temperature, 1 hour. As for the experimental part: The affinity of test compounds to the novel receptor site is assessed as follows. Whole forebrain tissue is obtained from rats. The tissue is first homogenised in buffer (usually 50 mM Tris/HCl, pH 7.4). The homogenised tissue is washed by centrifugation and resuspension in the same buffer, then stored at -70° C. until used. […] The final concentration of [3H]-Compound A in the mixture is usually 20 nM. The mixture is incubated at room temperature for 1 hour. [3H]-Compound A bound to the tissue is then separated from unbound [3H]-Compound A by filtration through Watman GF/B glass fibre filters. The filters are then washed rapidly with ice-cold buffer. The amount of radioactivity bound to the tissue trapped on the filters is measured by addition of liquid scintillation cocktail to the filters followed by counting in a liquid scintillation counter. In order to determine the amount of "specific" binding of [3H]-Compound A, parallel assays are carried out as above in which [3H]-Compound A and tissue are incubated together in the presence of unlabelled Compound A (usually 3 μM). The amount of binding of [3H]-Compound A remaining in the presence of this unlabelled compound is defined as "non-specific" binding. This amount is subtracted from the total amount of [3H]-Compound A binding (i.e. that present in the absence of unlabelled compound) to obtain the amount of "specific" binding of [3H]-Compound A to the novel site. The affinity of the binding of test compounds to the novel site can be estimated by incubating together [3H]-Compound A and tissue in the presence of a range of concentrations of the compound to be tested. The decrease in the level of specific [3H]-Compound A binding as a result of competition by increasing concentrations of the compound under test is plotted graphically, and non-linear regression analysis of the resulthant curve is used to provide an estimate of compound affinity in terms of pKi value.
Consider `COc1cc(C)c(Br)cc1C(=O)Nc1cccc2c1CCN(C)C2` [Example 25, N-(2-Methyl-1,2,3,4-tetrahydroisoquinolin-5-yl)-5-bromo-2-methoxy-4-methylbenzamide], for which the pKi entry is “greater than 7”.

Regarding `COc1cc(OC(C)C)c(C(C)=O)cc1C(=O)Nc1cccc2c1CCN(C)C2.Cl` [Example 70, N-(2-Methyl-1,2,3,4-tetrahydroisoquinolin-5-yl)-2-methoxy-4-iso-propyloxy-5-acetyl-benzamide, Hydrochloride], the pKi result was “greater than 7”.

For `COc1cc(N)c(Cl)cc1C(=O)Nc1cccc2c1CCN(C)C2.Cl` [Example 1, N-(2-Methyl-1,2,3,4-tetrahydroisoquinolin-5-yl)-4-amino-5-chloro-2-methoxy-benzamide Hydrochloride], the pKi entry was “greater than 7”.

`COc1cc(OC)c(C(=O)Nc2cccc3c2CCNC3)cc1Cl` [Example 19, N-(1,2,3,4-Tetrahydroisoquinolin-5-yl)-5-chloro-2,4-dimethoxybenzamide]: the pKi entry is on record as “greater than 7”.

With `COc1cc(C(C)C)c(C(F)(F)F)cc1C(=O)Nc1cccc2c1CCN(C)C2.Cl` [Example 46, N-(2-Methyl-1,2,3,4-tetrahydroisoquinolin-5-yl)-4-iso-propyl-5-trifluoromethyl-2-methoxybenzamide, Hydrochloride], the pKi entry is “greater than 7”.

As for `COc1cc(OC)c(C(=O)Nc2cccc3c2CCN(C)C3)cc1Br` [Example 17, N-(2-Methyl-1,2,3,4-tetrahydroisoquinolin-5-yl)-5-bromo-2,4-dimethoxybenzamide], the pKi result is “greater than 7”.

Consider `CCCOc1cc(N)c(Cl)cc1C(=O)Nc1cccc2c1CCN(C)C2` [Example 10, N-(2-Methyl-1,2,3,4-tetrahydroisoquinolin-5-yl)-4-amino-5-chloro-2-propoxy-benzamide], for which the pKi entry is given as “greater than 7”.

As for `COc1cc(OC)c(C(=O)Nc2ccc3c(c2)CN(C)CC3)cc1Br.Cl` [Example 52, N-(2-Methyl-1,2,3,4-tetrahydroisoquinolin-7-yl)-5-bromo-2,4-dimethoxybenzamide, Hydrochloride Salt], the pKi result was “greater than 7”.

Regarding `COc1cc(OC)c(C(=O)Nc2cccc3c2CCN(C)C3)cc1Cl` [Example 16, N-(2-Methyl-1,2;3,4-tetrahydroisoquinolin-5-yl)-5-chloro-2,4-dimethoxybenzamide], the pKi entry is reported as “greater than 7”.

As for `COc1cc(OC(C)C)c(Cl)cc1C(=O)Nc1cccc2c1CCN(C)C2.Cl` [Example 71, N-(2-Methyl-1,2,3,4-tetrahydroisoquinolin-5-yl)-5-chloro-2-methoxy-4-iso-propoxybenzamide, Hydrochloride], the pKi result is given as “greater than 7”.

As for `CCOc1cc(OC)c(C(=O)Nc2cccc3c2CCN(C)C3)cc1Cl` [Example 23, N-(2-Methyl-1,2,3,4-tetrahydroisoquinolin-5-yl)-5-chloro-4-ethoxy-2-methoxybenzamide], the pKi result is reported as “greater than 7”.

Regarding `COc1cc(C(C)(C)C)ccc1C(=O)Nc1cccc2c1CCN(C)C2.Cl` [Example 35, N-(2-Methyl-1,2,3,4-tetrahydroisoquinolin-5-yl)-4-tert-butyl-2-methoxybenzamide Hydrochloride], the pKi result is “greater than 7”.

`COc1ccc(C(=O)C(C)(C)C)cc1C(=O)Nc1cccc2c1CCN(C)C2.Cl` [Example 50, N-(2-Methyl-1,2,3,4-tetrahydroisoquinolin-5-yl)-5-pivaloyl-2-methoxybenzamide, Hydrochloride]: the pKi result is “greater than 7”.

In the case of `COc1cc(OC(C)C)c(Br)cc1C(=O)Nc1cccc2c1CCN(C)C2.Cl` [Example 45, N-(2-Methyl-1,2,3,4-tetrahydroisoquinolin-5-yl)-5-bromo-4-iso-propoxy-2-methoxybenzamide, Hydrochloride], the pKi result was “greater than 7”.

On to `CCc1cc(OC)c(C(=O)Nc2cccc3c2CCN(C)C3)cc1C(F)(F)F.Cl` [Example 68, N-(2-Methyl-1,2,3,4-tetrahydroisoquinolin-5-yl)-4-ethyl-2-methoxy-5-trifluoromethylbenzamide, Hydrochloride], for which the pKi entry is “greater than 7”.

As for `CCc1cc(OC)c(C(=O)Nc2cccc3c2CCN(C)C3)cc1Cl` [Example 37, N-(2-Methyl-1,2,3,4-tetrahydroisoquinolin-5-yl)-4-ethyl-2-methoxy-5-chloro Benzamide, Hydrochloride], the pKi entry is given as “greater than 7”.

As to `COc1cc(N)c(Br)cc1C(=O)Nc1cccc2c1CCN(C)C2` [Example 7, N-(2-Methyl-1,2,3,4-tetrahydroisoquinolin-5-yl)-4-amino-5-bromo-2-methoxybenzamide], the pKi result is listed as “greater than 7”.

For `COc1cc(C)c(Cl)cc1C(=O)Nc1cccc2c1CCN(C)C2` [Example 20, N-(2-Methyl-1,2,3,4-tetrahydroisoquinolin-5-yl)-5-chloro-2-methoxy-4-methylbenzamide], the pKi entry is given as “greater than 7”.

As to `COc1ccc(C(=O)C(C)C)cc1C(=O)Nc1cccc2c1CCN(C)C2` [Example 49, N-(2-Methyl-1,2,3,4-tetrahydroisoquinolin-5-yl) 5-iso-butyroyl-2-methoxy-benzamide Hydrochloride], the pKi result is “greater than 7”.

Regarding `COc1cc(N)c(I)cc1C(=O)Nc1cccc2c1CCN(C)C2` [Example 13, N-(2-Methyl-1,2,3,4-tetrahydroisoquinolin-5-yl)-4-amino-5-iodo-2-methoxybenzamide], the pKi entry is given as “greater than 7”.

Values taken from patent publication US6110934A, “Substituted benzamide derivatives and their use as anticonvulsants” (SmithKline Beecham p.l.c., priority 1996, dated 2000).
